Like-named read-outs stand apart in the source and are kept apart here. Residues, ends and D or L forms follow the SMILES beside them.
Key:
S. aureus USA300 [1] = assay type: cell-based, Staphylococcus aureus
Description: Two types of experiments were conducted to evaluate the anti-biofilm activity of these peptides against S. aureus USA300 grown under a static condition for 24 hours to form established biofilms in presence of tryptic soy broth (TSB). The experiment was set up using a flat bottom, 96-well, polystyrene microtiter plates (Corning, COSTAR). In short, S. aureus USA300 (10^5 CFU/mL) in fresh TSB media was made from an exponentially growing culture. 200 μL of this bacterial culture was added to each well of the microtiter plates. The plates are then incubated at 37° C. for 24 hours to allow biofilm formation. Media was then carefully removed followed by washing with sterile 1×PBS to remove any unattached bacteria. Solution containing μL of 10× peptide solution and 180 μL of fresh TSB were added. The plates were again incubated at 37° C. for another 24 hours. To measure the extent of biofilm disruption by the peptides as a function of biofilm reduction, crystal violet staining was performed. Media was pipetted out and the wells were carefully washed with 200 μL of PBS to remove the loosely attached cells. Subsequently, 200 μL of 99% methanol was added for fixation and the plates were allowed to sit for 15 minutes. The plates were finally aspirated and dried. Lastly, staining was done with 200 μL of 1% crystal violet in water for 5 minutes. Excess stain was gently rinsed off with tap water, and plates were air-dried. Further, stains were solubilized in 200 μL of 33% glacial acetic acid followed by colorimetric measurement at 600 nm on a Chromate® microtiter plate reader. The amounts of biofilm growth with and without compound treatments were calculated.
In addition, live cell contents of the peptide acted biofilms was estimated by XTT [2,3-bis(2-methyloxy-4-nitro-5-sulfophenyl)-2H-tertazolium-5-carboxanilide]assay by following the manufacturer's instructions with modifications. A 10% XTT solution in TSB media was added to each well and the plates were again incubated for 2 hours at 37° C. Absorbance at 450 nm (only media with XTT containing wells served as the blank) was obtained using Chromate® microtiter plate reader. Percentage of biofilm reduction for the peptide was plotted assuming 100% biofilm growth is achieved on the bacterial wells without peptide treatment.

S. aureus USA300 [2] = assay type: cell-based, Staphylococcus aureus; conditions: for loss in activity compared to the WT: MRSA USA300
Description: (§1) The antimicrobial activity of peptides was evaluated using a standard broth microdilution protocol. In brief, exponential phase bacteria at 10^6 CFU were incubated with serially diluted peptides overnight for ˜20 hours at 37° C. The plates were read on a ChroMate® 4300 Microplate Reader at 630 nm (GMI, Ramsey, Minn.).

human red blood cells = test: Hemolytic ability (Example 3); assay type: cell-based; conditions: concentration that causes 50% hemolysis
Description: Hemolytic analysis of selected peptides was performed using an established protocol. Briefly, human blood cells (UNMC Blood Bank) were washed three times with phosphate buffer saline (PBS) and diluted to a 2% solution. After peptide treatment, incubation at 37° C. for one hour, and centrifugation at 13,000 rpm, aliquots of the supernatant were transferred to a fresh 96-well microplate. To assess peptide cytotoxicity, the amount of hemoglobin released was measured at 545 nm. The percent lysis was calculated by assuming 100% release when human blood cells were treated with 1% TRITON™ X-100, and 0% release when incubated with PBS buffer.

E. coli ATCC 25922 = assay type: cell-based, Escherichia coli; conditions: ATCC 25922, 20 h
Description: as §1

SMILES	killing in preformed biofilms (XTT) (S. aureus USA300 [1]; 12.5 μM)	loss in activity compared to the WT (S. aureus USA300 [2])	S. aureus (MIC) (S. aureus USA300 [2]; S. aureus USA300)	HL50 (human red blood cells)	E. coli (MIC) (E. coli ATCC 25922)	S. aureus (MIC) (S. aureus USA300 [2]; USA300, 20 h)	killing in preformed biofilms (XTT) (S. aureus USA300 [1]; 25 μM)
CC[C@H](C)[C@H](NC(=O)[C@H](CCCNC(=N)N)NC(=O)[C@H](CCCNC(=N)N)NC(=O)[C@H](CC(C)C)NC(=O)[C@H](Cc1c[nH]c2ccccc12)NC(=O)[C@H](Cc1c[nH]c2ccccc12)NC(=O)[C@@H](N)Cc1c[nH]c2ccccc12)C(=O)N[C@@H](CCCNC(=N)N)C(N)=O [Peptide W8R, WWWLRRIR] (H-WWWLRRIR-NH2; N-terminus assumed)	20%	four-fold	12.5 µM	>200 µM	25 µM		
CC[C@H](C)[C@H](NC(=O)[C@H](CCCNC(=N)N)NC(=O)[C@H](CCCNC(=N)N)NC(=O)[C@H](CC(C)C)NC(=O)[C@H](Cc1c[nH]c2ccccc12)NC(=O)[C@H](CCCNC(=N)N)NC(=O)[C@@H](N)Cc1c[nH]c2ccccc12)C(=O)N[C@@H](Cc1c[nH]c2ccccc12)C(N)=O [Peptide W2R, WRWLRRIW] (H-WRWLRRIW-NH2; N-terminus assumed)	80%			100 µM	25 µM	6.2 µM	
CC[C@H](C)[C@H](NC(=O)[C@H](CCCNC(=N)N)NC(=O)[C@H](CCCNC(=N)N)NC(=O)[C@H](CC(C)C)NC(=O)[C@H](CCCNC(=N)N)NC(=O)[C@H](Cc1c[nH]c2ccccc12)NC(=O)[C@@H](N)Cc1c[nH]c2ccccc12)C(=O)N[C@@H](Cc1c[nH]c2ccccc12)C(N)=O [Peptide W3R, WWRLRRIW] (H-WWRLRRIW-NH2; N-terminus assumed)		four-fold	12.5 µM	>200 µM	25 µM		neither W1R nor W3R was able to kill
CC[C@H](C)[C@H](NC(=O)[C@H](CCCNC(=N)N)NC(=O)[C@H](CCCNC(=N)N)NC(=O)[C@H](CC(C)C)NC(=O)[C@H](Cc1c[nH]c2ccccc12)NC(=O)[C@H](Cc1c[nH]c2ccccc12)NC(=O)[C@@H](N)CCCNC(=N)N)C(=O)N[C@@H](Cc1c[nH]c2ccccc12)C(N)=O [Peptide W1R, RWWLRRIW] (H-RWWLRRIW-NH2; N-terminus assumed)		four-fold	12.5 µM	>200 µM	25 µM		neither W1R nor W3R was able to kill
